In patent US8969516B2, “Method of hydrolysis of peptide bond” (priority 2006, dated 2015):

Experiment: MALDI-TOF screening of Ni^2+ dependent hydrolysis in a combinatorial peptide library
Format: physicochemical
Conditions: Ni^2+ 2 mM, pH 8.2, 10 mM Tris, score=24/tm
Procedure, shortened: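 MALDI-TOF spectra taken at 2, 4, 6 and 8 h tracked the appearance of Ser/Thr-X-His-Z-Lys-Phe-Leu-NH2 cleavage products and the fall in substrate signals. Reactions: 1 mM peptide mixture, 2 mM Ni^2+, 10 mM Tris pH 8.2, at 37 or 45 °C; X/Z substitutions ranked by summed scores.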

[1] = CH3CO-Gly-Ala-Ser-X-His-Z-Lys-Phe-Leu-NH2 library, 37° C.
[2] = CH3CO-Gly-Ala-Ser-X-His-Z-Lys-Phe-Leu-NH2 library, 45° C.
[3] = CH3CO-Gly-Ala-Thr-X-His-Z-Lys-Phe-Leu-NH2 library, 45° C.
[4] = CH3CO-Gly-Ala-Thr-X-His-Z-Lys-Phe-Leu-NH2 library, 37° C.

Substance | hydrolysis score from MALDI-TOF screening [1] | hydrolysis score from MALDI-TOF screening [2] | hydrolysis score from MALDI-TOF screening [3] | hydrolysis score from MALDI-TOF screening [4]
Ac-GASLHFKFL-NH2 [SLHF] | 0 (a score of 0 if no trace of the product of hydrolysis was seen after 8 hours of incubation) | 3 (a score of 3 for detection at 8 hours) |  | 
Ac-GATPHGKFL-NH2 [TPHG] |  |  | 0 (a score of 0 if no trace of the product of hydrolysis was seen after 8 hours of incubation) | 
Ac-GASYHYKFL-NH2 [SYHY] | 3 (a score of 3 for detection at 8 hours) | 4 (a score of 4 for detection at 6 hours) |  | 
Ac-GATSHPKFL-NH2 [TSHP] |  |  | 0 (a score of 0 if no trace of the product of hydrolysis was seen after 8 hours of incubation) | 0 (a score of 0 if no trace of the product of hydrolysis was seen after 8 hours of incubation)
Ac-GATWHRKFL-NH2 [TWHR] |  |  | 4 (a score of 4 for detection at 6 hours) | 3 (a score of 3 for detection at 8 hours)
Ac-GATLHAKFL-NH2 [TLHA] |  |  | 0 (a score of 0 if no trace of the product of hydrolysis was seen after 8 hours of incubation) | 0 (a score of 0 if no trace of the product of hydrolysis was seen after 8 hours of incubation)
Ac-GATTHYKFL-NH2 [TTHY] |  |  | 0 (a score of 0 if no trace of the product of hydrolysis was seen after 8 hours of incubation) | 0 (a score of 0 if no trace of the product of hydrolysis was seen after 8 hours of incubation)
Ac-GASAHYKFL-NH2 [SAHY] | 0 (a score of 0 if no trace of the product of hydrolysis was seen after 8 hours of incubation) | 3 (a score of 3 for detection at 8 hours) |  | 
Ac-GATPHNKFL-NH2 [TPHN] |  |  | 0 (a score of 0 if no trace of the product of hydrolysis was seen after 8 hours of incubation) | 
Ac-GASKHAKFL-NH2 [SKHA] | 0 (a score of 0 if no trace of the product of hydrolysis was seen after 8 hours of incubation) | 0 (a score of 0 if no trace of the product of hydrolysis was seen after 8 hours of incubation) |  | 
Ac-GASGHSKFL-NH2 [SGHS] | 0 (a score of 0 if no trace of the product of hydrolysis was seen after 8 hours of incubation) | 0 (a score of 0 if no trace of the product of hydrolysis was seen after 8 hours of incubation) |  | 
Ac-GATHHEKFL-NH2 [THHE] |  |  | 0 (a score of 0 if no trace of the product of hydrolysis was seen after 8 hours of incubation) | 0 (a score of 0 if no trace of the product of hydrolysis was seen after 8 hours of incubation)
Ac-GATAHNKFL-NH2 [TAHN] |  |  | 0 (a score of 0 if no trace of the product of hydrolysis was seen after 8 hours of incubation) | 0 (a score of 0 if no trace of the product of hydrolysis was seen after 8 hours of incubation)
Ac-GATKHVKFL-NH2 [TKHV] |  |  | 6 (a score of 6 for detection at 4 hours) | 3 (a score of 3 for detection at 8 hours)
Ac-GATAHVKFL-NH2 [TAHV] |  |  | 0 (a score of 0 if no trace of the product of hydrolysis was seen after 8 hours of incubation) | 0 (a score of 0 if no trace of the product of hydrolysis was seen after 8 hours of incubation)
Ac-GATLHDKFL-NH2 [TLHD] |  |  | 0 (a score of 0 if no trace of the product of hydrolysis was seen after 8 hours of incubation) | 0 (a score of 0 if no trace of the product of hydrolysis was seen after 8 hours of incubation)
Ac-GATGHPKFL-NH2 [TGHP] |  |  | 0 (a score of 0 if no trace of the product of hydrolysis was seen after 8 hours of incubation) | 0 (a score of 0 if no trace of the product of hydrolysis was seen after 8 hours of incubation)
Ac-GATMHYKFL-NH2 [TMHY] |  |  | 0 (a score of 0 if no trace of the product of hydrolysis was seen after 8 hours of incubation) | 0 (a score of 0 if no trace of the product of hydrolysis was seen after 8 hours of incubation)
Ac-GASHHIKFL-NH2 [SHHI] | 6 (a score of 6 for detection at 4 hours) | 6 (a score of 6 for detection at 4 hours) |  | 
Ac-GATLHMKFL-NH2 [TLHM] |  |  | 0 (a score of 0 if no trace of the product of hydrolysis was seen after 8 hours of incubation) | 0 (a score of 0 if no trace of the product of hydrolysis was seen after 8 hours of incubation)

Substance | hydrolysis score from MALDI-TOF screening [1] | hydrolysis score from MALDI-TOF screening [2] | hydrolysis score from MALDI-TOF screening [3] | hydrolysis score from MALDI-TOF screening [4]
Ac-GASTHYKFL-NH2 [STHY] | 0 (a score of 0 if no trace of the product of hydrolysis was seen after 8 hours of incubation) | 3 (a score of 3 for detection at 8 hours) |  | 
Ac-GATYHDKFL-NH2 [TYHD] |  |  | 0 (a score of 0 if no trace of the product of hydrolysis was seen after 8 hours of incubation) | 0 (a score of 0 if no trace of the product of hydrolysis was seen after 8 hours of incubation)
Ac-GATSHDKFL-NH2 [TSHD] |  |  | 0 (a score of 0 if no trace of the product of hydrolysis was seen after 8 hours of incubation) | 0 (a score of 0 if no trace of the product of hydrolysis was seen after 8 hours of incubation)
Ac-GATVHLKFL-NH2 [TVHL] |  |  | 0 (a score of 0 if no trace of the product of hydrolysis was seen after 8 hours of incubation) | 0 (a score of 0 if no trace of the product of hydrolysis was seen after 8 hours of incubation)
Ac-GASWHWKFL-NH2 [SWHW] | 4 (a score of 4 for detection at 6 hours) | 6 (a score of 6 for detection at 4 hours) |  | 
Ac-GASGHEKFL-NH2 [SGHE] | 0 (a score of 0 if no trace of the product of hydrolysis was seen after 8 hours of incubation) | 0 (a score of 0 if no trace of the product of hydrolysis was seen after 8 hours of incubation) |  | 
Ac-GASVHAKFL-NH2 [SVHA] | 0 (a score of 0 if no trace of the product of hydrolysis was seen after 8 hours of incubation) | 0 (a score of 0 if no trace of the product of hydrolysis was seen after 8 hours of incubation) |  | 
Ac-GATHHHKFL-NH2 [THHH] |  |  | 4 (a score of 4 for detection at 6 hours) | 3 (a score of 3 for detection at 8 hours)
Ac-GASKHQKFL-NH2 [SKHQ] | 0 (a score of 0 if no trace of the product of hydrolysis was seen after 8 hours of incubation) | 0 (a score of 0 if no trace of the product of hydrolysis was seen after 8 hours of incubation) |  | 
Ac-GATTHMKFL-NH2 [TTHM] |  |  | 0 (a score of 0 if no trace of the product of hydrolysis was seen after 8 hours of incubation) | 0 (a score of 0 if no trace of the product of hydrolysis was seen after 8 hours of incubation)
Ac-GATAHDKFL-NH2 [TAHD] |  |  | 0 (a score of 0 if no trace of the product of hydrolysis was seen after 8 hours of incubation) | 0 (a score of 0 if no trace of the product of hydrolysis was seen after 8 hours of incubation)
Ac-GASPHVKFL-NH2 [SPHV] | 0 (a score of 0 if no trace of the product of hydrolysis was seen after 8 hours of incubation) | 0 (a score of 0 if no trace of the product of hydrolysis was seen after 8 hours of incubation) |  | 
Ac-GATWHQKFL-NH2 [TWHQ] |  |  | 0 (a score of 0 if no trace of the product of hydrolysis was seen after 8 hours of incubation) | 0 (a score of 0 if no trace of the product of hydrolysis was seen after 8 hours of incubation)
Ac-GATLHRKFL-NH2 [TLHR] |  |  | 3 (a score of 3 for detection at 8 hours) | 0 (a score of 0 if no trace of the product of hydrolysis was seen after 8 hours of incubation)
Ac-GASPHEKFL-NH2 [SPHE] | 0 (a score of 0 if no trace of the product of hydrolysis was seen after 8 hours of incubation) | 0 (a score of 0 if no trace of the product of hydrolysis was seen after 8 hours of incubation) |  | 
Ac-GATLHGKFL-NH2 [TLHG] |  |  | 0 (a score of 0 if no trace of the product of hydrolysis was seen after 8 hours of incubation) | 0 (a score of 0 if no trace of the product of hydrolysis was seen after 8 hours of incubation)
Ac-GASQHLKFL-NH2 [SQHL] | 6 (a score of 6 for detection at 4 hours) | 6 (a score of 6 for detection at 4 hours) |  | 
Ac-GATKHIKFL-NH2 [TKHI] |  |  | 12 (a score of 12, if it was seen to be partially hydrolysed at 2 hours) | 4 (a score of 4 for detection at 6 hours)
Ac-GATPHVKFL-NH2 [TPHV] |  |  | 0 (a score of 0 if no trace of the product of hydrolysis was seen after 8 hours of incubation) | 
